{
  "source": "paper PMC10872856",
  "about": "(The Prostate, 2023)",
  "target": "T1, N-myristoyltransferase 1 (NMT1) (Homo sapiens, UniProt P30419)",
  "T1 sequence (P30419 1-496)": "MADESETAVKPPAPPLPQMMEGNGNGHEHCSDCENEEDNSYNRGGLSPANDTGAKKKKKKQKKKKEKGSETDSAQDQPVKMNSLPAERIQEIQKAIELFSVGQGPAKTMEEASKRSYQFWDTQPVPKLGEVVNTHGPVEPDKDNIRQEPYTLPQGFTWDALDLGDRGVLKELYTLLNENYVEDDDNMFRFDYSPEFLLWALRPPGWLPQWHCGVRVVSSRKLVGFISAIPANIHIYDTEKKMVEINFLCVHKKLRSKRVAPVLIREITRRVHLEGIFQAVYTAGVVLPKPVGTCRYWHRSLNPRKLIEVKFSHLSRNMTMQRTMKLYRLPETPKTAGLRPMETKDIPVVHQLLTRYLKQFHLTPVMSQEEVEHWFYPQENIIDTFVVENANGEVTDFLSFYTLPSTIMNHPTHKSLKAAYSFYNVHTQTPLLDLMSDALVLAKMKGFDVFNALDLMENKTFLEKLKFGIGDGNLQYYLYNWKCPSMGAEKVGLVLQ",
  "test": "fluorogenic CoA-release enzyme assay",
  "type": "biochemical",
  "data": [
    {"compound": "CCCCCCCCCCCCCCN[C@H](CO)[C@H](O)c1ccc([N+](=O)[O-])cc1", "note": "[LCL204, (1R,2R)-LCL204]", "values": [
      {"measurement": "IC50", "value": 2.3, "unit": "µM"}
    ]}
  ]
}
